#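 Where inhibition never reached the appropriate level, the endpoint shown equals the highest concentration tested. Otherwise, values were interpolated linearly from a five-concentration, 48-hour dose response in 96-well plates. Here, GI50 denotes the concentration required for 50% inhibition of growth.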 Activity calls are given as the source filed them. Cut-off read from the data, not from the text of the source: active = GI50 up to about 1.1 µM and inactive = higher.
# Experiments:
# Experiment in all cases: DTP human tumour cell line panel, 48 h
# HCT-15 = test system: HCT-15
# EKVX = test system: EKVX
# OVCAR-4 = test system: OVCAR-4
# MOLT-4 = test system: MOLT-4
# NCI-H23 = test system: NCI-H23
# SF-295 = test system: SF-295
# UACC-62 = test system: UACC-62
# SK-MEL-2 = test system: SK-MEL-2
# NCI-H460 = test system: NCI-H460
# ACHN = test system: ACHN
# TK-10 = test system: TK-10
# Malme-3M = test system: Malme-3M
# SK-MEL-28 = test system: SK-MEL-28
# HCT-116 = test system: HCT-116
# RPMI-8226 = test system: RPMI-8226
# IGROV-1 = test system: IGROV-1
# HCC 2998 = test system: HCC 2998
# SF-539 = test system: SF-539
# HOP-92 = test system: HOP-92
SMILES,GI50 (HCT-15),GI50 (EKVX),GI50 (OVCAR-4),GI50 (MOLT-4),GI50 (NCI-H23),GI50 (SF-295),GI50 (UACC-62),GI50 (SK-MEL-2),GI50 (NCI-H460),GI50 (ACHN),GI50 (TK-10),GI50 (Malme-3M),GI50 (SK-MEL-28),GI50 (HCT-116),GI50 (RPMI-8226),GI50 (IGROV-1),GI50 (HCC 2998),GI50 (SF-539),GI50 (HOP-92)
COC(=O)/C=C/c1cnc2c(c1)oc(=O)n2CCc1ccccn1,> 100 µM,> 100 µM (inactive),> 100 µM (inactive),> 100 µM (inactive),> 100 µM (inactive),> 100 µM (inactive),> 100 µM (inactive),> 100 µM (inactive),> 100 µM (inactive),> 100 µM (inactive),> 100 µM (inactive),> 100 µM (inactive),> 100 µM (inactive),> 100 µM (inactive),> 100 µM (inactive),> 100 µM (inactive),> 100 µM (inactive),> 100 µM (inactive),
COc1ccc(-c2ccc(CC(=O)O)cc2)cc1OC,,> 100 µM (inactive),> 100 µM (inactive),> 100 µM (inactive),> 100 µM (inactive),> 100 µM (inactive),> 100 µM (inactive),> 100 µM (inactive),> 100 µM (inactive),> 100 µM (inactive),> 100 µM (inactive),> 100 µM (inactive),> 100 µM (inactive),> 100 µM (inactive),> 100 µM (inactive),,,,> 100 µM (inactive)
NC(=O)Cc1nc2c(N)ncnc2n1C1OC(CO)C(O)C1O (stereo not drawn),> 100 µM,> 100 µM (inactive),> 100 µM (inactive),> 100 µM (inactive),> 100 µM (inactive),> 100 µM (inactive),> 100 µM (inactive),> 100 µM (inactive),> 100 µM (inactive),> 100 µM (inactive),> 100 µM (inactive),> 100 µM (inactive),> 100 µM (inactive),> 100 µM (inactive),> 100 µM (inactive),> 100 µM (inactive),> 100 µM (inactive),> 100 µM (inactive),> 100 µM (inactive)
COC1/C=C\C=C(/C)C(=O)NC2=CC(=O)C=C(C2=O)C(OC)C(C)CC(OC)C(OC)C(C)/C=C(/C)C1OC(N)=O (stereo not drawn),3.38 µM,1.97 µM (inactive),8.26 µM (inactive),0.214 µM (active),1.7 µM (inactive),20.6 µM (inactive),0.76 µM (active),2.31 µM (inactive),11.5 µM (inactive),,,0.189 µM (active),2.59 µM (inactive),1.34 µM (inactive),0.807 µM (active),12.7 µM (inactive),2.66 µM (inactive),8.09 µM (inactive),2.04 µM (inactive)
CC(=O)On1c(-c2ccccc2-c2nc3ccccc3n2OC(C)=O)nc2ccccc21,67.5 µM,> 10 µM (inactive),,11.3 µM (inactive),7.48 µM (inactive),44.7 µM (inactive),21 µM (inactive),22.4 µM (inactive),,61.8 µM (inactive),68.1 µM (inactive),15.1 µM (inactive),29.3 µM (inactive),25 µM (inactive),7.82 µM (inactive),22.1 µM (inactive),33.4 µM (inactive),42.7 µM (inactive),
O=C1c2ccccc2C(=O)C1(O)c1c[nH]c2ccccc12,> 100 µM,> 100 µM (inactive),> 100 µM (inactive),> 100 µM (inactive),> 100 µM (inactive),> 100 µM (inactive),> 100 µM (inactive),> 100 µM (inactive),> 100 µM (inactive),,> 100 µM (inactive),> 100 µM (inactive),> 100 µM (inactive),> 100 µM (inactive),> 100 µM (inactive),> 100 µM (inactive),,> 100 µM (inactive),> 100 µM (inactive)
CN(C)c1ccc(/C=C/C(=O)C(C)(C)C)cc1Br,19.9 µM,44.4 µM (inactive),19.9 µM (inactive),21.2 µM (inactive),26.1 µM (inactive),40.3 µM (inactive),16.7 µM (inactive),18.9 µM (inactive),35.8 µM (inactive),31.5 µM (inactive),30.8 µM (inactive),28.4 µM (inactive),17.8 µM (inactive),17.7 µM (inactive),19.5 µM (inactive),35.4 µM (inactive),27.4 µM (inactive),25.1 µM (inactive),
COc1ccc(C(=O)OCC2OC(n3cnc4c(=S)nc[nH]c43)C(OC(=O)c3ccc(OC)cc3)C2OC(=O)c2ccc(OC)cc2)cc1 (stereo not drawn),47.2 µM,,7.82 µM (inactive),22.5 µM (inactive),39.7 µM (inactive),33.1 µM (inactive),13.3 µM (inactive),12.8 µM (inactive),43.1 µM (inactive),76.9 µM (inactive),7.43 µM (inactive),32.2 µM (inactive),> 100 µM (inactive),10.5 µM (inactive),4.36 µM (inactive),57 µM (inactive),9.35 µM (inactive),20.5 µM (inactive),6.05 µM (inactive)
